In PubChem BioAssay AID248 (DTP/NCI, 2004):
Values joined by “and” are separate entries in the source; they are usually repeats but may differ in a detail not shown here. Equal entries are not always repeated. Inconclusive results and toxic doses are left out. No stated cut-off is given here; in the data, active means T/C of 150% or more; inactive means T/C below 125%.

Test system: L1210 leukemia ip in BDF1 mice, survival T/C
Test: NCI In Vivo Anticancer Drug Screen. Data for tumor model L1210 Leukemia (intraperitoneal) in B6D2F1 (BDF1) mice
Settings: endpoint: mean survival time, higher = longer survival
How it was run: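 Value reflects the ratio of survival in compound-treated mice to survival in vehicle-treated controls, with both groups carrying the same transplanted tumor.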

[1] = dose: 100.0 mg/kg/injection, schedule: Q01DX009 (ip), vehicle: Klucel (hydroxypropylcellulose) (HPC)
[2] = dose: 200.0 mg/kg/injection, schedule: Q01DX009 (ip), vehicle: Klucel (hydroxypropylcellulose) (HPC)
[3] = dose: 400.0 mg/kg/injection, schedule: Q01DX009 (ip), vehicle: Klucel (hydroxypropylcellulose) (HPC)
[4] = dose: 100.0 mg/kg/injection, schedule: Q04DX003 (ip), vehicle: saline with Tween-80
[5] = dose: 200.0 mg/kg/injection, schedule: Q04DX003 (ip), vehicle: saline with Tween-80
[6] = dose: 100.0 mg/kg/injection, schedule: Q01DX001 (ip), vehicle: other
[7] = dose: 200.0 mg/kg/injection, schedule: Q01DX001 (ip), vehicle: other
[8] = dose: 400.0 mg/kg/injection, schedule: Q01DX001 (ip), vehicle: other
[9] = dose: 100.0 mg/kg/injection, schedule: Q04DX003 (ip), vehicle: Klucel (hydroxypropylcellulose) (HPC)
[10] = dose: 200.0 mg/kg/injection, schedule: Q04DX003 (ip), vehicle: Klucel (hydroxypropylcellulose) (HPC)
[11] = dose: 400.0 mg/kg/injection, schedule: Q04DX003 (ip), vehicle: Klucel (hydroxypropylcellulose) (HPC)
[12] = dose: 25.0 mg/kg/injection, schedule: Q01DX009 (ip), vehicle: saline
[13] = dose: 400.0 mg/kg/injection, schedule: Q04DX003 (ip), vehicle: saline with Tween-80

Measured: T/C

O=C(O)c1cccc(Cl)c1
inactive: [1] 100 % of control | [2] 100 % of control | [3] 86 % of control

CC1(c2ccc(N(CCCl)CCCl)cc2)NC(=O)NC1=O (configuration not stated)
inactive: dose: 12.5 mg/kg/injection, schedule: Q04DX003 (ip), vehicle: saline 98 % of control | dose: 25.0 mg/kg/injection, schedule: Q04DX003 (ip), vehicle: saline 103 % of control | dose: 50.0 mg/kg/injection, schedule: Q04DX003 (ip), vehicle: saline 103 % of control | dose: 100.0 mg/kg/injection, schedule: Q04DX003 (ip), vehicle: saline 113 % of control | dose: 200.0 mg/kg/injection, schedule: Q04DX003 (ip), vehicle: saline 121 % of control

C=CC[N+]1=C(C)C(C)(C)c2ccccc21
inactive: [4] 95 % of control | [5] 96 % of control

CC(=O)OC1C2C=CC(C2)C1OC(C)=O (configuration not stated)
inactive: [6] 100 % of control | [7] 106 % of control | [8] 112 % of control

CC1=C/C=C/C(C)C(O)C(C)C(O)C(C)C(O)C(C)C(O)C(C)CC=C(C)C(=O)c2c(O)c(C)cc3c2C(=O)C(C)=C(NC1=O)C3=O (configuration not stated)
inactive: [9] 103 % of control | [10] 100 % of control | [11] 101 % of control

O=C(COc1ccccc1)NCCO
inactive: [1] 110 % of control | [9] 100 % of control | [2] 103 % of control | [10] 97 % of control | [3] 111 % of control | [11] 102 % of control

Nc1nc(N)c2nc(CBr)cnc2n1
inactive: dose: 6.25 mg/kg/injection, schedule: Q01DX009 (ip), vehicle: saline 105 % of control | dose: 12.5 mg/kg/injection, schedule: Q01DX009 (ip), vehicle: saline 88 % of control | [12] 115 % of control

Cc1[nH]c2c(C)ccc(C)c2c(=O)c1Br
inactive: [6] 91 % of control | [7] 94 % of control | [8] 86 % of control

CCCCCCCCCCCCCCCCNC(=O)C[N+](C)(C)Cc1ccccc1
inactive: dose: 2.5 mg/kg/injection, schedule: Q01DX009 (ip), vehicle: saline with Tween-80 101 % of control | dose: 5.0 mg/kg/injection, schedule: Q01DX009 (ip), vehicle: saline with Tween-80 98 % of control

O=[N+]([O-])c1ccc(C(O)CC(O)(C(F)(F)F)C(F)(F)F)cc1 (configuration not stated)
inactive: [1] 93 % of control | [9] 94 % of control | [2] 94 % of control | [10] 91 % of control | [3] 97 % of control | [11] 95 % of control

CC1(C)Cc2ccccc2C(c2nccc3ccccc23)=N1
inactive: [9] 106 % of control | [10] 118 % of control | [11] 102 % of control

CCCCCCCCCCCCOc1ccc(/C(=N\N=C(N)N)c2ccccc2)c(O)c1
inactive: dose: 15.0 mg/kg/injection, schedule: Q01DX Z (ip), vehicle: saline 91 % of control | dose: 30.0 mg/kg/injection, schedule: Q01DX Z (ip), vehicle: saline 89 % of control | dose: 120.0 mg/kg/injection, schedule: Q01DX Z (ip), vehicle: saline 92 % of control | dose: 120.0 mg/kg/injection, schedule: Q01DX Z (oral), vehicle: saline 102 % of control | dose: 240.0 mg/kg/injection, schedule: Q01DX Z (ip), vehicle: saline 103 % of control | dose: 240.0 mg/kg/injection, schedule: Q01DX Z (oral), vehicle: saline 102 % of control | dose: 480.0 mg/kg/injection, schedule: Q01DX Z (ip), vehicle: saline 110 % of control | dose: 480.0 mg/kg/injection, schedule: Q01DX Z (oral), vehicle: saline 95 % of control | dose: 960.0 mg/kg/injection, schedule: Q01DX Z (oral), vehicle: saline 101 % of control

COc1cc(OC)c(/C=C/c2cc3c4ccccc4ccc3[n+](C)c2)c(OC)c1
inactive: dose: 6.25 mg/kg/injection, schedule: Q01DX001 (ip), vehicle: saline with Tween-80 104 % of control | dose: 12.5 mg/kg/injection, schedule: Q01DX001 (ip), vehicle: saline with Tween-80 107 % of control

CCC(CCc1ccc(OC)c(OC)c1)C(=O)O (configuration not stated)
inactive: dose: 100.0 mg/kg/injection, schedule: Q01DX001 (ip), vehicle: saline with Tween-80 93 % of control | dose: 200.0 mg/kg/injection, schedule: Q01DX001 (ip), vehicle: saline with Tween-80 98 % of control | dose: 400.0 mg/kg/injection, schedule: Q01DX001 (ip), vehicle: saline with Tween-80 98 % of control

CC(=O)OCC(Br)C(Br)COC(C)=O (configuration not stated)
inactive: dose: 100.0 mg/kg/injection, schedule: Q01DX009 (ip), vehicle: saline 98 % of control | dose: 200.0 mg/kg/injection, schedule: Q01DX009 (ip), vehicle: saline 95 % of control | dose: 400.0 mg/kg/injection, schedule: Q01DX009 (ip), vehicle: saline 103 % of control

NC(=O)NC1CCCC1
inactive: [4] 93 % of control | [5] 89 % of control | [13] 93 % of control

O=C(NCCCl)Nc1ccc2c(c1)Cc1ccccc1-2
inactive: [9] 108 % of control | [10] 93 % of control | [11] 101 % of control

CC(C)(Cc1ccc(Cl)cc1)N=C(N)N
inactive: dose: 25.0 mg/kg/injection, schedule: Q04DX002 (ip), vehicle: Klucel (hydroxypropylcellulose) (HPC) 107 % of control | dose: 50.0 mg/kg/injection, schedule: Q04DX002 (ip), vehicle: Klucel (hydroxypropylcellulose) (HPC) 95 % of control | dose: 100.0 mg/kg/injection, schedule: Q04DX002 (ip), vehicle: Klucel (hydroxypropylcellulose) (HPC) 104 % of control

Cc1ccc(Nc2nnc(N=Nc3ccccc3)s2)cc1C
inactive: dose: 100.0 mg/kg/injection, schedule: Q01DX009 (ip), vehicle: other 101 % of control | dose: 200.0 mg/kg/injection, schedule: Q01DX009 (ip), vehicle: other 98 % of control | dose: 400.0 mg/kg/injection, schedule: Q01DX009 (ip), vehicle: other 98 % of control

CC1CN1CCS(=O)(=O)CCN1CC1C (configuration not stated)
inactive: dose: 0.3 mg/kg/injection, schedule: Q01DX015 (ip), vehicle: carboxymethylcellulose (CMC) 95 % of control | dose: 0.6 mg/kg/injection, schedule: Q01DX015 (ip), vehicle: carboxymethylcellulose (CMC) 101 % of control | dose: 1.2 mg/kg/injection, schedule: Q01DX015 (ip), vehicle: carboxymethylcellulose (CMC) 109 % of control | dose: 1.25 mg/kg/injection, schedule: Q01DX015 (ip), vehicle: carboxymethylcellulose (CMC) 101 % of control | dose: 2.5 mg/kg/injection, schedule: Q01DX015 (ip), vehicle: carboxymethylcellulose (CMC) 103 % of control and 110 % of control | dose: 3.1 mg/kg/injection, schedule: Q01DX015 (ip), vehicle: saline 102 % of control | dose: 4.6 mg/kg/injection, schedule: Q01DX015 (ip), vehicle: saline 102 % of control | dose: 5.0 mg/kg/injection, schedule: Q01DX015 (ip), vehicle: carboxymethylcellulose (CMC) 101 % of control | dose: 7.0 mg/kg/injection, schedule: Q01DX015 (ip), vehicle: saline 94 % of control | dose: 10.0 mg/kg/injection, schedule: Q01DX015 (ip), vehicle: carboxymethylcellulose (CMC) 100 % of control and 112 % of control | dose: 10.0 mg/kg/injection, schedule: Q01DX015 (ip), vehicle: saline 100 % of control | dose: 20.0 mg/kg/injection, schedule: Q01DX015 (ip), vehicle: carboxymethylcellulose (CMC) 108 % of control | dose: 40.0 mg/kg/injection, schedule: Q01DX015 (ip), vehicle: carboxymethylcellulose (CMC) 114 % of control

COc1c(OC2OC(CO)C(O)C(O)C2O)cc2c(c1OC)-c1ccc(SC)c(=O)cc1C(NC(C)=O)CC2 (configuration not stated)
inactive: dose: 6.0 mg/kg/injection, schedule: Q01DX009 (ip), vehicle: saline 97 % of control | dose: 12.0 mg/kg/injection, schedule: Q01DX001 (ip), vehicle: saline 98 % of control | dose: 12.0 mg/kg/injection, schedule: Q01DX009 (ip), vehicle: saline 98 % of control | dose: 25.0 mg/kg/injection, schedule: Q01DX001 (ip), vehicle: saline 100 % of control | [12] 101 % of control

C=C(C)c1cc2ccccc2cc1O
inactive: dose: 100.0 mg/kg/injection, schedule: Q01DX009 (ip), vehicle: saline with Tween-80 98 % of control | [4] 90 % of control | dose: 200.0 mg/kg/injection, schedule: Q01DX009 (ip), vehicle: saline with Tween-80 100 % of control | [5] 94 % of control | dose: 400.0 mg/kg/injection, schedule: Q01DX009 (ip), vehicle: saline with Tween-80 98 % of control | [13] 92 % of control
